# Laboratory results: PubChem BioAssay AID330 (DTP/NCI, 2004)
# Several values for one entry are separate records, joined by “and”; a condition that tells them apart may be missing. Identical values can stand only once. Inconclusive results and toxic doses are left out.
# System: P388 leukemia ip, CD2F1 mice, survival T/C
# Test: NCI In Vivo Anticancer Drug Screen. Data for tumor model P388 Leukemia (intraperitoneal) in CD2F1 (CDF1) mice
# Details: endpoint: median survival time, higher = longer survival
# In short: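 Mice carrying the transplanted tumor received test compound or vehicle. Survival was recorded in each group, and the value is the treated-group measurement divided by that of the vehicle-treated control group.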
# [1] = dose: 100.0 mg/kg/injection, schedule: Q04DX003 (ip), vehicle: saline with Tween-80
# [2] = dose: 200.0 mg/kg/injection, schedule: Q04DX003 (ip), vehicle: saline with Tween-80
# [3] = dose: 400.0 mg/kg/injection, schedule: Q04DX003 (ip), vehicle: saline with Tween-80
# [4] = dose: 200.0 mg/kg/injection, schedule: Q01DX009 (ip), vehicle: saline with Tween-80
# [5] = dose: 100.0 mg/kg/injection, schedule: Q01DX009 (ip), vehicle: saline with Tween-80
# [6] = dose: 12.5 mg/kg/injection, schedule: Q01DX009 (ip), vehicle: Klucel (hydroxypropylcellulose) (HPC)
# [7] = dose: 25.0 mg/kg/injection, schedule: Q01DX009 (ip), vehicle: Klucel (hydroxypropylcellulose) (HPC)
# [8] = dose: 50.0 mg/kg/injection, schedule: Q01DX009 (ip), vehicle: Klucel (hydroxypropylcellulose) (HPC)
# [9] = dose: 50.0 mg/kg/injection, schedule: Q01DX005 (ip), vehicle: saline with Tween-80
# [10] = dose: 100.0 mg/kg/injection, schedule: Q01DX005 (ip), vehicle: saline with Tween-80
# [11] = dose: 200.0 mg/kg/injection, schedule: Q01DX005 (ip), vehicle: saline with Tween-80
# [12] = dose: 25.0 mg/kg/injection, schedule: Q01DX005 (ip), vehicle: saline with Tween-80
# [13] = dose: 100.0 mg/kg/injection, schedule: Q01DX009 (ip), vehicle: Klucel (hydroxypropylcellulose) (HPC)
# [14] = dose: 50.0 mg/kg/injection, schedule: Q01DX009 (ip), vehicle: saline with Tween-80
smiles,measurement,setting,value
CC(=O)CC(=O)OCc1ccccc1,T/C,[1],100 % of control
same,T/C,[2],100 % of control
same,T/C,[3],100 % of control
CCOCN(COCC)c1ccc(Cl)cc1,T/C,[4],164 % of control
CCCCCCCCCCCCCCCCN(O)C(=O)c1cnc[nH]1,T/C,"dose: 100.0 mg/kg/injection, schedule: Q04DX003 (ip), vehicle: Klucel (hydroxypropylcellulose) (HPC)",99 % of control
same,T/C,"dose: 200.0 mg/kg/injection, schedule: Q04DX003 (ip), vehicle: Klucel (hydroxypropylcellulose) (HPC)",101 % of control
same,T/C,"dose: 400.0 mg/kg/injection, schedule: Q04DX003 (ip), vehicle: Klucel (hydroxypropylcellulose) (HPC)",97 % of control
S=c1nc[nH]c2c1ncn2C1CCCCO1 (stereo unspecified),T/C,"dose: 15.0 mg/kg/injection, schedule: Q01DX009 (ip), vehicle: saline with Tween-80",86 % of control
same,T/C,"dose: 30.0 mg/kg/injection, schedule: Q01DX009 (ip), vehicle: saline with Tween-80",104 % of control
same,T/C,"dose: 60.0 mg/kg/injection, schedule: Q01DX009 (ip), vehicle: saline with Tween-80",113 % of control
same,T/C,"dose: 62.5 mg/kg/injection, schedule: Q01DX009 (ip), vehicle: Klucel (hydroxypropylcellulose) (HPC)",86 % of control
same,T/C,[5],118 % of control
same,T/C,[1],91 % of control
same,T/C,"dose: 120.0 mg/kg/injection, schedule: Q01DX009 (ip), vehicle: saline with Tween-80",108 % of control
same,T/C,"dose: 125.0 mg/kg/injection, schedule: Q01DX009 (ip), vehicle: Klucel (hydroxypropylcellulose) (HPC)",109 % of control
same,T/C,[4],104 % of control
same,T/C,[2],108 % of control
same,T/C,"dose: 250.0 mg/kg/injection, schedule: Q01DX009 (ip), vehicle: Klucel (hydroxypropylcellulose) (HPC)",90 % of control
same,T/C,[3],112 % of control
C[N+]12CCN(CC1)CC2,T/C,"dose: 100.0 mg/kg/injection, schedule: Q04DX003 (ip), vehicle: saline",104 % of control
same,T/C,"dose: 200.0 mg/kg/injection, schedule: Q04DX003 (ip), vehicle: saline",95 % of control
same,T/C,"dose: 400.0 mg/kg/injection, schedule: Q04DX003 (ip), vehicle: saline",100 % of control
C[C@]12CCCC[C@@H]1CC[C@@H]1[C@@H]2CC[C@]2(C)[C@@H](N(CCO)CCCO)CC[C@@H]12,T/C,[6],93 % of control
same,T/C,[7],99 % of control
same,T/C,[8],88 % of control
Cc1cccc2c(=O)c(CCl)c(-c3ccccc3)sc12,T/C,[9],103 % of control
same,T/C,[10],116 % of control
same,T/C,[11],119 % of control
OCC(O)C(O)C(O)c1nn(-c2ccccc2)c2nc3ccccc3nc12 (stereo unspecified),T/C,[12],94 % of control
same,T/C,[9],100 % of control and 90 % of control
same,T/C,[10],90 % of control
same,T/C,[11],90 % of control
NCCN1C(=O)c2ccccc2C1(O)c1ccc(Cl)cc1 (stereo unspecified),T/C,[8],102 % of control
same,T/C,[13],97 % of control
same,T/C,"dose: 200.0 mg/kg/injection, schedule: Q01DX009 (ip), vehicle: Klucel (hydroxypropylcellulose) (HPC)",98 % of control
Cc1c(-c2ccccc2)nc(N)n1C,T/C,"dose: 5.0 mg/kg/injection, schedule: Q04DX002 (ip), vehicle: saline",100 % of control
same,T/C,"dose: 10.0 mg/kg/injection, schedule: Q04DX002 (ip), vehicle: saline",99 % of control
same,T/C,"dose: 20.0 mg/kg/injection, schedule: Q04DX002 (ip), vehicle: saline",96 % of control
NNC(=O)CNC(=O)Nc1cccc(C(F)(F)F)c1,T/C,[14],100 % of control
same,T/C,[5],92 % of control
same,T/C,[4],100 % of control
CNC(=O)OCc1c(COC(=O)NC)c(-c2ccc(Cl)c(Cl)c2)n2c1CCC2,T/C,[6],153 % of control
same,T/C,[7],160 % of control
same,T/C,[8],155 % of control
same,T/C,[13],188 % of control
[N-]=[N+]=C1N=CN=C1c1ncn[nH]1,T/C,"dose: 3.12 mg/kg/injection, schedule: Q01DX009 (ip), vehicle: Klucel (hydroxypropylcellulose) (HPC)",113 % of control
same,T/C,[6],150 % of control
same,T/C,[7],155 % of control
same,T/C,[8],160 % of control
CN(C)[C@@H]1C(=O)C(C(=O)NCN2CCN(C(=N)N=C(N)N)CC2)=C(O)[C@@]2(O)C(=O)C3=C(O)c4c(O)cccc4[C@@](C)(O)[C@H]3C[C@@H]12,T/C,"dose: 1.8 mg/kg/injection, schedule: Q01DX005 (ip), vehicle: saline",111 % of control
same,T/C,"dose: 3.0 mg/kg/injection, schedule: Q01DX005 (ip), vehicle: saline",117 % of control
same,T/C,"dose: 8.33 mg/kg/injection, schedule: Q01DX005 (ip), vehicle: saline",154 % of control
same,T/C,"dose: 10.0 mg/kg/injection, schedule: Q01DX005 (ip), vehicle: saline",89 % of control
O=P1(N2CCOCC2)OC(c2ccccc2)=CCN1c1ccc(Cl)cc1 (stereo unspecified),T/C,"dose: 50.0 mg/kg/injection, schedule: Q01DX005 (ip), vehicle: Klucel (hydroxypropylcellulose) (HPC)",104 % of control
same,T/C,"dose: 100.0 mg/kg/injection, schedule: Q01DX005 (ip), vehicle: Klucel (hydroxypropylcellulose) (HPC)",100 % of control
same,T/C,"dose: 200.0 mg/kg/injection, schedule: Q01DX005 (ip), vehicle: Klucel (hydroxypropylcellulose) (HPC)",95 % of control
CCCC(=O)Nc1cc([N+](=O)[O-])c([N+](=O)[O-])cc1OC,T/C,"dose: 60.0 mg/kg/injection, schedule: Q01DX005 (ip), vehicle: Klucel (hydroxypropylcellulose) (HPC)",94 % of control
same,T/C,"dose: 120.0 mg/kg/injection, schedule: Q01DX005 (ip), vehicle: Klucel (hydroxypropylcellulose) (HPC)",91 % of control
same,T/C,"dose: 240.0 mg/kg/injection, schedule: Q01DX005 (ip), vehicle: Klucel (hydroxypropylcellulose) (HPC)",94 % of control
COc1cc(OC)cc(C2(C(O)C3OC(C)(C)OC3C)SCCCS2)c1 (stereo unspecified),T/C,"dose: 100.0 mg/kg/injection, schedule: Q01DX001 (ip), vehicle: Klucel (hydroxypropylcellulose) (HPC)",103 % of control
same,T/C,"dose: 200.0 mg/kg/injection, schedule: Q01DX001 (ip), vehicle: Klucel (hydroxypropylcellulose) (HPC)",99 % of control
same,T/C,"dose: 400.0 mg/kg/injection, schedule: Q01DX001 (ip), vehicle: Klucel (hydroxypropylcellulose) (HPC)",97 % of control
CC1=CC2OC3C(OC(=O)CCCCl)C(OC(=O)CCCCl)C(C)(C2(CO)CC1)C31CO1 (stereo unspecified),T/C,"dose: 4.0 mg/kg/injection, schedule: Q01DX009 (ip), vehicle: saline with Tween-80",152 % of control
same,T/C,"dose: 8.0 mg/kg/injection, schedule: Q01DX009 (ip), vehicle: saline with Tween-80",172 % of control
CCn1c2ccccc2c2cc(NC(=S)NC(=O)c3cccs3)ccc21,T/C,"dose: 6.25 mg/kg/injection, schedule: Q01DX005 (ip), vehicle: saline with Tween-80",93 % of control
same,T/C,"dose: 12.5 mg/kg/injection, schedule: Q01DX005 (ip), vehicle: saline with Tween-80",86 % of control
same,T/C,[12],93 % of control
same,T/C,[10],90 % of control
same,T/C,[11],92 % of control
CN=C=O,T/C,"dose: 6.25 mg/kg/injection, schedule: Q01DX005 (ip), vehicle: water",99 % of control
same,T/C,"dose: 12.5 mg/kg/injection, schedule: Q01DX005 (ip), vehicle: water",92 % of control
same,T/C,"dose: 25.0 mg/kg/injection, schedule: Q01DX005 (ip), vehicle: water",98 % of control
same,T/C,"dose: 50.0 mg/kg/injection, schedule: Q01DX005 (ip), vehicle: water",101 % of control
same,T/C,"dose: 100.0 mg/kg/injection, schedule: Q01DX005 (ip), vehicle: water",108 % of control
same,T/C,"dose: 200.0 mg/kg/injection, schedule: Q01DX005 (ip), vehicle: water",99 % of control
CN[C@H]1CCc2cc(OC)c(OC)c(OC)c2-c2ccc(O)c(=O)cc21,T/C,"dose: 2.5 mg/kg/injection, schedule: Q01DX009 (ip), vehicle: Klucel (hydroxypropylcellulose) (HPC)",103 % of control
same,T/C,"dose: 5.0 mg/kg/injection, schedule: Q01DX009 (ip), vehicle: Klucel (hydroxypropylcellulose) (HPC)",100 % of control
same,T/C,"dose: 10.0 mg/kg/injection, schedule: Q01DX009 (ip), vehicle: Klucel (hydroxypropylcellulose) (HPC)",99 % of control
same,T/C,"dose: 20.0 mg/kg/injection, schedule: Q01DX009 (ip), vehicle: Klucel (hydroxypropylcellulose) (HPC)",93 % of control
same,T/C,"dose: 40.0 mg/kg/injection, schedule: Q01DX009 (ip), vehicle: Klucel (hydroxypropylcellulose) (HPC)",92 % of control
same,T/C,"dose: 80.0 mg/kg/injection, schedule: Q01DX009 (ip), vehicle: Klucel (hydroxypropylcellulose) (HPC)",108 % of control
CN(C)P(=O)(Oc1occc1C(C)(C)O)N(C)C,T/C,"dose: 7.5 mg/kg/injection, schedule: Q01DX005 (ip), vehicle: saline",100 % of control
same,T/C,"dose: 15.0 mg/kg/injection, schedule: Q01DX005 (ip), vehicle: saline",102 % of control
CCOC(=O)c1ccc(-n2c(C)nc3cc(Cl)ccc3c2=O)cc1,T/C,[14],104 % of control
same,T/C,[5],98 % of control
same,T/C,[4],98 % of control
